Results published in US4265830A, “Naphthalenetetrayletrakis(sulfonylimino)-aryl disulfonic acids and salts thereof” (priority 1979, dated 1981).
Where two headings read alike, the source gives them in different places.

Legend:
activated human C1 = biological target: T1, activated human C1 (Homo sapiens, UniProt P09871); test: Test Code 026 (C1 inhibitor); assay type: biochemical; conditions: activity in wells, twofold serial dilution assay; higher well number indicates higher activity
T1 sequence (P09871 16-437 limits assumed): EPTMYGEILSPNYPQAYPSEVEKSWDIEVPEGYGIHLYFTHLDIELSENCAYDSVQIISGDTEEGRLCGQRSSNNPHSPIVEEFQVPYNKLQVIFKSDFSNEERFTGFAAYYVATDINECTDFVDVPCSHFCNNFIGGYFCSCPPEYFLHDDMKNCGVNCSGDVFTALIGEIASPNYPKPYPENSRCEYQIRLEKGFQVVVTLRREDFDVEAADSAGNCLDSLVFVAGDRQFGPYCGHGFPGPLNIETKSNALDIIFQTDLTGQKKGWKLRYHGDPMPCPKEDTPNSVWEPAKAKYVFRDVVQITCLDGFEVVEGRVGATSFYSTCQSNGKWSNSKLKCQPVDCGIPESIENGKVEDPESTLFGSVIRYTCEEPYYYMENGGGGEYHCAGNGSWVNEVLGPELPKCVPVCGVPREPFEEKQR
T1 sequence (P09871 438-688 limits assumed): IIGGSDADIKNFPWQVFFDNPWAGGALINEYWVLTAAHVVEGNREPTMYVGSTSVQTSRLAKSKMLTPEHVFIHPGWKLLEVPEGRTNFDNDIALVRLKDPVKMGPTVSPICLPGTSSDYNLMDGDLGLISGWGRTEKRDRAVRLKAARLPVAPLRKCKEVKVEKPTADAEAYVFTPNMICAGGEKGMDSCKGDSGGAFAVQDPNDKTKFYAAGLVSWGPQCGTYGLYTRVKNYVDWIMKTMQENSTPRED
From the text: (§1) An active inhibitor protects C2 from C1 and C4; (ii) Test Code 035 (C3-C9 inhibitor)--This test determines the ability of the late components of human complement (C3-C9) to lyse EAC 142 in the presence of appropriate dilutions of the test compound. An active inhibitor protects EAC 142 from lysis by human C3-C9; (iii) Test Code 036 (C-Shunt inhibitor)--In this test human erythrocytes rendered fragile are lysed in autologous serum via the shunt pathway activated by cobra venom factor in the presence of appropriate dilutions of the test compound. Inhibition of the shunt pathway results in failure of lysis; (iv) Forssman Vasculitis Test--Here, the well known complement dependent lesion, Forssman vasculitis, is produced in guinea pigs by intradermal injection of rabbit anti-Forssman antiserum. […] Percent inhibition is calculated by comparison with simultaneous controls. […]

[1] = test system: late components of human complement (C3-C9); test: Test Code 035 (C3-C9 inhibitor), lysis of EAC 142; assay type: biochemical; conditions: activity in wells, twofold serial dilution assay; higher well number indicates higher activity
From the text: as §1

shunt pathway = test: Test Code 036 (C-Shunt inhibitor), lysis of human erythrocytes in autologous serum activated by cobra venom factor; assay type: cell-based; conditions: activity in wells, twofold serial dilution assay; higher well number indicates higher activity
From the text: as §1

complement activity = test: Guinea Pig Intraperitoneal Test (GPIP), serum complement activity; assay type: in vivo; conditions: Cavia porcellus, ip, 200 mg./kg. i.p., vs simultaneous controls
From the text: An active inhibitor protects C2 from C1 and C4; (ii) Test Code 035 (C3-C9 inhibitor)--This test determines the ability of the late components of human complement (C3-C9) to lyse EAC 142 in the presence of appropriate dilutions of the test compound. An active inhibitor protects EAC 142 from lysis by human C3-C9; (iii) Test Code 036 (C-Shunt inhibitor)--In this test human erythrocytes rendered fragile are lysed in autologous serum via the shunt pathway activated by cobra venom factor in the presence of appropriate dilutions of the test compound. Inhibition of the shunt pathway results in failure of lysis; (iv) Forssman Vasculitis Test--Here, the well known complement dependent lesion, Forssman vasculitis, is produced in guinea pigs by intradermal injection of rabbit anti-Forssman antiserum. The lesion is measured in terms of diameter, edema and hemorrhage and the extent to which a combined index of these is inhibited by prior intraperitoneal injection of the test compound at 200 mg./kg. is then reported, unless otherwise stated; (v) Forssman Shock Test--Lethal shock is produced in guinea pigs by an i.v. injection of anti-Forssman antiserum and the harmonic mean death time of treated guinea pigs is compared with that of simultaneous controls; (vi) Complement Level Reduction Test--In this test, the above dosed guinea pigs, or others, are bled for serum and the complement level is determined in undiluted serum by the capillary tube method of U.S. Pat. No. 3,876,376 and compared to undosed control guinea pigs; (vii) Cap 50 Test--Here, appropriate amounts of the test compound are added to a pool of guinea pig serum in vitro, after which the undiluted serum capillary tube assay referred to above is run. The concentration of compound inhibiting 50% is reported; (viii) Guinea Pig Intraperitoneal Test (GPIP)--Guinea Pigs weighing about 300 g. are dosed intraperitoneally (i.p.) with 200 mg./kg. of the test compound dissolved in saline and adjusted to pH 7-8. […] Percent inhibition is calculated by comparison with simultaneous controls. […]

O=S(=O)([O-])c1cc(NS(=O)(=O)c2cc(S(=O)(=O)Nc3cc(S(=O)(=O)[O-])cc(S(=O)(=O)[O-])c3)c3cc(S(=O)(=O)Nc4cc(S(=O)(=O)[O-])cc(S(=O)(=O)[O-])c4)cc(S(=O)(=O)Nc4cc(S(=O)(=O)[O-])cc(S(=O)(=O)[O-])c4)c3c2)cc(S(=O)(=O)[O-])c1.[Na+].[Na+].[Na+].[Na+].[Na+].[Na+].[Na+].[Na+] [5,5',5",5"'-[1,3,5,7-Naphthalenetetrayltetrakis(sulfonylimino)]tetrakis-1,3-benzenedisulfonic acid, octasodium salt]
Cl 026* Wells (activated human C1): +10 Wells | C-Late 035* Wells [1]: +1 Wells | Shunt Inhibition 036* Wells (shunt pathway): +7 Wells | inhibition at 200 mg/kg (complement activity; 0.5 h, serum 30 minutes after injection, read-out: In Vivo Activity (Guinea Pig) % Inhibition Intraperitoneal, 30 minutes): -62% | inhibition at 200 mg/kg (complement activity; 1 h, serum 60 minutes after injection, read-out: In Vivo Activity (Guinea Pig) % Inhibition Intraperitoneal, 60 minutes): -59% | inhibition at 200 mg/kg (complement activity; 2 h, serum 120 minutes after injection, read-out: In Vivo Activity (Guinea Pig) % Inhibition Intraperitoneal, 120 minutes): -81%
